Holding throughout (type): functional, organism-based
For one assay, the system named is Pseudomonas aeruginosa. Put plainly: Antibacterial activity against Pseudomonas aeruginosa after 24 hrs by […] microdilution method. Background: In broth dilution the organism is exposed to a series of concentrations in liquid medium.
The subject of a further assay is Escherichia coli. Put plainly: Antibacterial activity against Escherichia coli after 24 hrs by NCCLS microdilution method.
The next assay relates to Staphylococcus aureus. Put plainly: Antibacterial activity against Staphylococcus aureus after 24 hrs by […] microdilution method.
Assay [1] has as its system Staphylococcus epidermidis. Briefly: Antibacterial activity against Staphylococcus epidermidis after 24 hrs by […] microdilution method.
The next assay relates to Geotrichum candidum. Briefly: Antifungal activity against Geotrichum candidum.
Another assay concerns Nakaseomyces glabratus. Briefly: Antifungal activity against Candida glabrata.
The next assay has as its system Candida albicans. Briefly: Antifungal activity against Candida albicans.

Converted amounts (≈) assume the structure as drawn. The source made the active and inactive calls. No cut-off for these calls is given here.

In general, IC50 refers to the midpoint of a concentration-inhibition curve. A high value points to weaker potency in that assay. For `CCC(=O)OCc1cn(CCn2c([N+](=O)[O-])cnc2C)nn1`, the IC50 (with Pseudomonas aeruginosa; in the assay on Escherichia coli; in the assay on Staphylococcus aureus; in assay [1]) was more than 500 µg/mL each time.
For `Cc1ccccc1OCc1cn(CCn2c([N+](=O)[O-])cnc2C)nn1`, the outcome in the assay on Geotrichum candidum, with Nakaseomyces glabratus and in the assay on Candida albicans was inactive. Moreover, the IC50 in the assay with Pseudomonas aeruginosa was more than 500 µg/mL; in the assay on Escherichia coli it was 0.028 µg/mL (≈ 0.0818 µM); with Staphylococcus aureus, more than 500 µg/mL; in assay [1], more than 500 µg/mL.
As to `Cc1ncc([N+](=O)[O-])n1CCn1cc(C2(O)CCCCC2)nn1`, the outcome with Geotrichum candidum, with Nakaseomyces glabratus and in the assay with Candida albicans was inactive. Besides, the IC50 in the assay with Pseudomonas aeruginosa is 0.18 µg/mL (≈ 0.562 µM); in the assay with Escherichia coli, more than 500 µg/mL; in the assay on Staphylococcus aureus it was more than 500 µg/mL; in assay [1] it was more than 500 µg/mL.
As to `Cc1ncc([N+](=O)[O-])n1CCn1cc(COc2ccc([N+](=O)[O-])cc2)nn1`, the IC50 (in the assay on Pseudomonas aeruginosa; in the assay on Escherichia coli; with Staphylococcus aureus; in assay [1]) was more than 500 µg/mL throughout.
As for `Cc1ncc([N+](=O)[O-])n1CCn1cc(COc2ccccc2C=O)nn1`, the IC50 (in the assay on Pseudomonas aeruginosa; in the assay on Escherichia coli; in the assay with Staphylococcus aureus; in assay [1]) was more than 500 µg/mL throughout.
Regarding `CC(=O)c1ccc(OCc2cn(CCn3c([N+](=O)[O-])cnc3C)nn2)cc1`, the IC50 (with Pseudomonas aeruginosa; in the assay with Escherichia coli; in the assay with Staphylococcus aureus; in assay [1]) was more than 500 µg/mL in each case.
For `COCc1cn(CCn2c([N+](=O)[O-])cnc2C)nn1`, the IC50 (in the assay with Pseudomonas aeruginosa; in the assay with Escherichia coli; in the assay on Staphylococcus aureus; in assay [1]) was more than 500 µg/mL each time.
Regarding `Cc1ccc(OCc2cn(CCn3c([N+](=O)[O-])cnc3C)nn2)cc1`, the outcome in the assay on Geotrichum candidum, in the assay on Nakaseomyces glabratus and with Candida albicans was inactive. The half-maximal inhibitory concentration (IC50) in the assay with Pseudomonas aeruginosa is 0.03 µg/mL (≈ 0.0876 µM); with Escherichia coli it was 0.06 µg/mL (≈ 0.175 µM); in the assay on Staphylococcus aureus it was 0.13 µg/mL (≈ 0.38 µM); in assay [1] it was more than 500 µg/mL.
With `Cc1ncc([N+](=O)[O-])n1CCn1cc(CCO)nn1`, the IC50 (in the assay with Pseudomonas aeruginosa; in the assay on Escherichia coli; in the assay on Staphylococcus aureus; in assay [1]) was more than 500 µg/mL throughout.
For the molecule `Cc1ncc([N+](=O)[O-])n1CCn1cc(COc2ccccc2)nn1`, the IC50 is 0.13 µg/mL (≈ 0.396 µM) in the assay with Pseudomonas aeruginosa, 0.67 µg/mL (≈ 2.04 µM) in the assay on Escherichia coli, more than 500 µg/mL in the assay with Staphylococcus aureus and more than 500 µg/mL in assay [1].
In the case of `Cc1ncc([N+](=O)[O-])n1CCn1cc(-c2ccccn2)nn1`, the outcome in the assay on Geotrichum candidum, in the assay with Nakaseomyces glabratus and in the assay on Candida albicans was inactive. Besides, the IC50 in the assay with Pseudomonas aeruginosa was 0.13 µg/mL (≈ 0.434 µM); in the assay with Escherichia coli it was 0.12 µg/mL (≈ 0.401 µM); in the assay with Staphylococcus aureus it was 0.13 µg/mL (≈ 0.434 µM); in assay [1] it was more than 500 µg/mL.
Take `CN(C)[C@@H]1C(O)=C(C(N)=O)C(=O)[C@@]2(O)C(O)=C3C(=O)c4c(O)cccc4[C@@](C)(O)[C@H]3C[C@@H]12` [TETRACYCLINE]: the concentration for half-maximal inhibition (IC50) in the assay on Pseudomonas aeruginosa was determined as 0.06 µg/mL (≈ 0.135 µM); in the assay with Escherichia coli, 0.09 µg/mL (≈ 0.203 µM); with Staphylococcus aureus, 0.12 µg/mL (≈ 0.27 µM); in assay [1], 0.08 µg/mL (≈ 0.18 µM).
In the case of `Cc1ncc([N+](=O)[O-])n1CCn1cc(-c2ccccc2)nn1`, the result with Geotrichum candidum, in the assay with Nakaseomyces glabratus and with Candida albicans was inactive. The IC50 in the assay on Pseudomonas aeruginosa was 0.13 µg/mL (≈ 0.436 µM); in the assay on Escherichia coli, 0.13 µg/mL (≈ 0.436 µM); in the assay on Staphylococcus aureus it was more than 500 µg/mL; in assay [1], more than 500 µg/mL.
Regarding `Cc1ncc([N+](=O)[O-])n1CCn1cc(-c2cccnc2)nn1`, the result in the assay with Geotrichum candidum, with Nakaseomyces glabratus and with Candida albicans was inactive. The IC50 with Pseudomonas aeruginosa was more than 500 µg/mL; in the assay on Escherichia coli, more than 500 µg/mL; in the assay with Staphylococcus aureus, 0.31 µg/mL (≈ 1.04 µM); in assay [1], more than 500 µg/mL.
Regarding `Cc1ncc([N+](=O)[O-])n1CCn1cc(COc2ccc(C=O)cc2)nn1`, the outcome with Geotrichum candidum, with Nakaseomyces glabratus and with Candida albicans was inactive. Further, the IC50 was 0.07 µg/mL (≈ 0.196 µM) in the assay with Pseudomonas aeruginosa, 0.07 µg/mL (≈ 0.196 µM) in the assay on Escherichia coli, more than 500 µg/mL in the assay with Staphylococcus aureus and more than 500 µg/mL in assay [1].
As to `Cc1ncc([N+](=O)[O-])n1CCn1cc(COc2ccccc2Cl)nn1`, the IC50 (in the assay on Pseudomonas aeruginosa; in the assay on Escherichia coli; in the assay with Staphylococcus aureus; in assay [1]) was more than 500 µg/mL each time.
As to `Cc1ncc([N+](=O)[O-])n1CCn1cc(COc2ccc(Cl)cc2)nn1`, the outcome in the assay on Geotrichum candidum, in the assay on Nakaseomyces glabratus and in the assay on Candida albicans was inactive. Besides, the IC50 with Pseudomonas aeruginosa is 0.02 µg/mL (≈ 0.0551 µM); with Escherichia coli, 0.003 µg/mL (≈ 0.00827 µM); with Staphylococcus aureus it was 0.13 µg/mL (≈ 0.358 µM); in assay [1], more than 500 µg/mL.
Turning to `Cc1ncc([N+](=O)[O-])n1CCn1cc(CBr)nn1`, the concentration for half-maximal inhibition (IC50) (in the assay with Pseudomonas aeruginosa; in the assay on Escherichia coli; in the assay with Staphylococcus aureus; in assay [1]) was more than 500 µg/mL in each case.
For the molecule `Cc1ncc([N+](=O)[O-])n1CCn1cc(COc2ccccc2[N+](=O)[O-])nn1`, the concentration for half-maximal inhibition (IC50) (in the assay with Pseudomonas aeruginosa; in the assay with Escherichia coli; in the assay on Staphylococcus aureus; in assay [1]) was more than 500 µg/mL in each case.
On to `Cc1cccc(OCc2cn(CCn3c([N+](=O)[O-])cnc3C)nn2)c1`, for which the outcome with Geotrichum candidum, in the assay on Nakaseomyces glabratus and in the assay on Candida albicans was inactive. In addition, the IC50 with Pseudomonas aeruginosa is 0.068 µg/mL (≈ 0.199 µM); in the assay with Escherichia coli it was 0.067 µg/mL (≈ 0.196 µM); with Staphylococcus aureus, 0.26 µg/mL (≈ 0.759 µM); in assay [1], more than 500 µg/mL.
For the molecule `Cc1ncc([N+](=O)[O-])n1CCn1cc(CO)nn1`, the result with Geotrichum candidum, in the assay with Nakaseomyces glabratus and in the assay with Candida albicans was inactive. Also, the 50% inhibitory concentration (IC50) in the assay on Pseudomonas aeruginosa came out at 0.18 µg/mL (≈ 0.714 µM); in the assay on Escherichia coli it was 0.091 µg/mL (≈ 0.361 µM); with Staphylococcus aureus it was 0.35 µg/mL (≈ 1.39 µM); in assay [1], 0.35 µg/mL (≈ 1.39 µM).
For `Cc1ncc([N+](=O)[O-])n1CCn1cc(COC2CCCCO2)nn1` (stereo not drawn), the IC50 (in the assay on Pseudomonas aeruginosa; in the assay on Escherichia coli; in the assay with Staphylococcus aureus; in assay [1]) was more than 500 µg/mL in each case.

The values above are taken from ChEMBL document CHEMBL1153901, “Synthesis and antibacterial activity evaluation of metronidazole-triazole conjugates” (Bioorg Med Chem Lett, 2009).
